Laboratory results published in patent US20230028441A1, “NOVEL HETEROARYL-TRIAZOLE COMPOUNDS AS PESTICIDES” (Bayer Aktiengesellschaft, priority 2019, published 2023).

How the values were obtained:
Format in all cases: in vivo
[1] = test system: adult brown dog ticks (Rhipicephalus sanguineus); test: Rhipicephalus sanguineus in-vitro contact test with adult brown dog ticks; details: after 48 hours, read-out: efficacy (ticks dead or moribund); for pest or weed control at 1 µg/cm2, 100 g/ha: 1 μg/cm^2 (=100 g/ha); for pest or weed control at 5 µg/cm2, 500 g/ha: 5 μg/cm^2 (=500 g/ha)
Procedure, shortened: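 Compound in acetone coated onto glass tube inner walls at 900 ppm, giving 5 μg/cm^2. Adult ticks (5-10 per tube) held at room temperature for 48 h, then placed on a 45-50° C. heating plate for up to 5 min. Ticks unable to climb away counted dead or moribund; efficacy given as % dead/moribund.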

[2] = test system: adult cat fleas (Ctenocephalides felis); test: Ctenocephalides felis in-vitro contact test, adult cat flea; details: 5 μg/cm^2 (=500 g/ha), after 48 hours, read-out: efficacy (fleas dead or moribund)
Procedure, shortened: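 Acetone solutions were coated on glass tube walls, 900 ppm giving 5 μg/cm^2. After drying, 5-10 adult fleas per tube were held 48 h at room temperature. Fleas unable to climb away from a 45-50 °C heating plate within 5 min were scored dead or moribund, as % efficacy.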

[3] = test system: adult unfed cat fleas (Ctenocephalides felis); test: Ctenocephalides felis oral test; details: 48 h, 100 ppm in cattle blood, after 2 days
Procedure, shortened: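 About 20 adult unfed Ctenocephalides felis fed through parafilm on cattle blood dosed with compound (DMSO stock diluted in blood), blood chamber at 37°C, fleas at room temperature. Mortality (%) scored after 2 days; 100% means all fleas killed.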

[4] = test system: brown planthopper (Nilaparvata lugens); test: Nilaparvata lugens spray test; details: in Oryza sativa, 96 h
Procedure, shortened: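 Rice plants (Oryza sativa) sprayed with compound in acetone/DMF diluted in water containing 1000 ppm alkylarylpolyglycol ether emulsifier, then infested with planthoppers. Mortality % scored after 4 days (100% = all killed, 0% = none killed).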

[5] = test system: Aedes aegypti strain MONHEIM; test: Aedes aegypti test (AEDSAE surface treatment & contact assay); details: 24 hours after contact, read-out: efficacy (mortality); for mortality at 4 mg/m2: surface concentration 4 mg/m^2, 30 minutes exposure; for mortality at 20 mg/m2: surface concentration 20 mg/m^2, 30 minutes exposure
Procedure: (§1) Solvent: Aceton+2000 ppm rapeseed oil methyl ester (RME)
(§2) In order to produce a sufficient, active ingredient containing solution it is necessary to solve the test compound in the solvent-mix (acetone at 2 mg/ml/RME 2000 ppm). This solution is pipetted onto a glazed tile and after evaporation of the acetone, adult mosquitoes of the species Aedes aegypti strain MONHEIM are placed onto the dried surface. The exposure time is 30 minutes. Mortality in percent (%) is determined 24 hours after contact of the insects to the treated surface. 100% mortality means that all tested insects are dead, whereas 0% means that no insect died.

[6] = test system: adult engorged female ticks (Rhipicephalus microplus); test: Rhipicephalus (Boophilus) microplus injection test; details: 168 h, egg deposition after 7 days, read-out: efficacy (infertile eggs); for pest or weed control at 0.004 mg: 4 μg/animal
Procedure, shortened: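 Compound was dissolved in DMSO at 10 mg per 0.5 mL and diluted with DMSO to the test concentration. Five engorged adult females received a 1 μL abdominal injection and were kept in a climate chamber. After 7 days, fertile egg deposition was scored, with unclear eggs held until hatching at about 42 days; 100% efficacy means all eggs were infertile.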

[7] = test system: larvae of the southern green stink bug (Nezara viridula); test: Nezara viridula spray test; details: in Hordeum vulgare, 96 h
Procedure, shortened: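 Barley plants infested with Nezara viridula larvae were sprayed with compound in acetone/dimethylformamide, diluted in water containing 1000 ppm alkylarylpolyglycol ether emulsifier. Mortality (%) was scored after 4 days; 100% means all stink bugs killed.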

[8] = test system: Musca domestica strain WHO-N; test: Musca domestica test (MUSCDO surface treatment & contact assay); details: 24 hours after contact, read-out: efficacy (mortality); for mortality at 4 mg/m2: surface concentration 4 mg/m^2, 30 minutes exposure; for mortality at 20 mg/m2: surface concentration 20 mg/m^2, 30 minutes exposure
Procedure: as §1
as §2, with “flies” for “mosquitoes”, “Musca domestica” for “Aedes aegypti”, “WHO-N” for “MONHEIM”

[9] = test system: fall armyworm larvae (Spodoptera frugiperda); test: Spodoptera frugiperda spray test (maize leaf sections); details: 168 h
Procedure, shortened: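 Maize leaf sections were sprayed with compound formulated in acetone/DMF and diluted in water containing 1000 ppm emulsifier. Once dry, sections were infested with fall armyworm larvae. Mortality (%) was scored after 7 days.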

Compound	pest or weed control at 1 µg/cm2, 100 g/ha [1]	pest or weed control at 5 µg/cm2, 500 g/ha [1]	pest or weed control at 5 µg/cm2 [2]	mortality at 100 ppm [3]	mortality at 500 g/ha [4]	mortality at 4 mg/m2 [5]	mortality at 20 mg/m2 [5]	pest or weed control at 0.004 mg [6]	pest or weed control at 0.02 mg ([6]; 20 μg/animal)	mortality at 100 g/ha [7]	mortality at 500 g/ha [7]	mortality at 4 mg/m2 [8]	mortality at 20 mg/m2 [8]	mortality at 100 g/ha [9]	mortality at 500 g/ha [9]	mortality at 100 g/ha [4]
CC(NC(=O)c1cc(Cl)cc(C(F)(F)F)c1)c1nc(N)nn1-c1ccc(Cl)cn1 (racemic) [I-006, N-[1-[5-amino-2-(5-chloro-2-pyridyl)-1,2,4-triazol-3-yl]ethyl]-3-chloro-5-(trifluoromethyl)benzamide]	80%	100%	100%	100%	90%	90 to 100%	90 to 100%	100%	100%	100%	100%	90 to 100%	90 to 100%	100%	100%	
CNc1nc(C(C)NC(=O)c2cc(C(F)(F)F)cc(C(F)(F)F)c2)n(-c2ncccn2)n1 (stereo not drawn) [I-088]	100%	100%	100%	100%		90 to 100%	90 to 100%	100%		100%		90 to 100%	90 to 100%	100%		100%
